Measured values reported in PMC6010545, “Identification of a Novel Polyamine Scaffold With Potent Efflux Pump Inhibition Activity Toward Multi-Drug Resistant Bacterial Pathogens” (Frontiers in Microbiology, 2018).
Read-outs that look alike come from different tables or passages of the source.

Tests used:
A. baumannii (1643) = experiment: Potentiation of levofloxacin; format: cell-based; settings: increasing polyamine concentration
MTT cytotoxicity assay = format: cell-based; settings: human, 25 μg mL^-1, 48 h, read-out: percent recovery (cell viability)
Method: To assess toxicity of polyamine compounds we used HepG2 human liver carcinoma cells and Hek293T human embryonic kidney epithelial cells. The viability of cell lines was determined using a 3-(4,5-dimethylthiazol-2-yl)-2,5-diphenyltetrazolium bromide (MTT) molecular probe as previously described by our group ([Fleeman et al., 2015]). Briefly, 247, 266, 271 (Hek293T), or 250, 271, 314 (HepG2), alongside control efflux pump inhibitor PaβN, were diluted in 10% DMF from 25 μg mL^-1 to 3 μg mL^-1 using twofold dilutions, before being added to cells in DMEM with 10% FBS and 1% penicillin/streptomycin. Cells were then incubated for 48 h at 37°C with 5% CO2. Following this, viability was assessed by the addition of MTT and measuring the OD570 in a Biotek plate reader. Percent recovery was determined compared to no drug controls.

[1] = tested on: P. aeruginosa proficient (1419) and deficient (1418) strain; experiment: Aztreonam combination testing in efflux proficient and deficient strains; format: cell-based; settings: strain 1419 (efflux proficient); polyamine 12.5 μg mL^-1, ½ X MIC aztreonam
Method: FIGURE 6 Confirming efflux pump inhibition by polyamines using efflux deficient strains. (A) A P. aeruginosa proficient (1419) and deficient (1418) strain were subjected to combination testing of the polyamines at 12.5 μg mL^-1 and ½ X MIC of aztreonam. Fold potentiation was calculated by dividing the CFU mL^-1 for aztreonam only by the CFU mL^-1 of the combined treatment groups. (B) Lead polyamine 247 was assessed for its ability to potentiate the activity of chloramphenicol toward S. aureus strain United States 300 and its norA mutant. Shown is the potentiated chloramphenicol EC90 calculated as described in A. Error bars are shown ± SEM.

[2] = tested on: tetracycline-resistant P. aeruginosa isolate 1419; experiment: Checkerboard potentiation assay with tetracycline; format: cell-based, Pseudomonas aeruginosa
Method: Scaffold ranking library samples and individual polyamines were screened using checkerboard inhibitory assays to assess the potentiation of tetracycline and chloramphenicol. The test utilized a 96-well plate microtiter assay where the concentration of the scaffold or individual polyamine was decreased from 25 to 0.8 μg mL^-1 (average molarity of mixture samples 65 to 4 μM) along the rows, and the concentration of tetracycline or chloramphenicol was increased from 0.4 to 100 μM across the columns. […] However, with the known antibiotics, we report EC90 values in μM, which more accurately describes purified compounds. Plates were incubated statically at 37°C for 20 h, and the optical density (OD600) was determined using a Synergy 2 plate reader (BioTek). Potentiation modeling (detailed below) was performed to determine fold change in the 50 and 90% effective concentration of tetracycline or chloramphenicol.
Potentiation was quantified using a mathematical model developed by our group to assess the ability of library samples and individual compounds to effectively enhance the activity of tetracycline or chloramphenicol ([Hoel, 1987]). […] In this way, only libraries and compounds that potentiated tetracycline or chloramphenicol activity were pursued. The model is based on the following equation for modeling the percentage activity of a mixture of two agents with independent action ([Hoel, 1987]):
%Antibiotic & Comp(X1,X2)=%Antibiotic(X1)+%Comp(X2)−%Antibiotic(X1)⋅%Comp(X2)
Here, x1 and x2 are the concentrations of antibiotic (tetracycline or chloramphenicol) and library/compound (Comp) tested, respectively. This equation can be rearranged to model the effective percent activity (EC) of the antibiotic alone, after accounting for compound activity:
Eff%Antibiotic(X1)=%Antibiotic & Compound(X1,X2)−%Compound(X2)/1−%Compound(X2)
Thus, the model-adjusted checkerboards show the antibiotic activity post-potentiation, and from that one can determine the true change in Mic.

Q: Which potentiation of levofloxacin (A. baumannii (1643)) does the source give for `NCCC[C@H](CN)NC[C@H](Cc1ccccc1)NCCc1ccccc1` [compound 271] here?
A: Its potentiation of levofloxacin is “dose response curve of antibiotic potentiation”.

Q: What about the recovery at 48 h, 25 μg mL^-1 (MTT cytotoxicity assay; Hek293T human embryonic kidney epithelial cells, vs solvent only controls) of the same compound?
A: The recovery at 48 h, 25 μg mL^-1 was 75%.

Q: And the recovery at 48 h, 25 μg mL^-1 (MTT cytotoxicity assay; HepG2 human liver carcinoma cells)?
A: Its recovery at 48 h, 25 μg mL^-1 is 74%.

Q: And the potentiation of aztreonam [1]?
A: The potentiation of aztreonam was “best potentiators of aztreonam”.

Q: And the “FP* (fold potentiation of tetracycline EC50)” value ([2]; 25 µg ml-1 TPI, EC50 tetracycline no TPI / with TPI)?
A: The value was 8.2 fold.

Q: What about the “FP# (fold potentiation of tetracycline EC90)” value ([2]; 25 µg ml-1 TPI, EC90 tetracycline no TPI / with TPI) of the same compound?
A: Its value is 8.5 fold.

Q: And the “FP* (fold potentiation of tetracycline EC50)” value ([2]; EC50 tetracycline without EPI / with EPI)?
A: Its value is 8.2 fold.

Q: And the “FP# (fold potentiation of tetracycline EC90)” value ([2]; EC90 tetracycline without EPI / with EPI)?
A: The value was 8.5 fold.

Q: What about the EC50 ([2]; Pseudomonas aeruginosa, 20 h, inhibitor alone, 25 μg mL^-1 highest concentration tested, * = EC50, read-out: EPI* (inhibitory concentration of efflux pump inhibitor alone)) of the same compound?
A: The EC50 was greater than 25 µg/mL.

Q: And the “TPI (inhibitory concentration of polyamine alone)” value ([2]; polyamine alone, 25 µg ml-1 highest tested)?
A: Its value is greater than 25 µg/mL.
